Tests used:
[1] = test system: MCF-7/adr adriamycin-resistant breast cancer cell line; test: Cell proliferation (CellTiter 96 AQueous MTS/PMS), MCF-7/adr; type: cell-based; conditions: Homo sapiens, NCI/ADR-RES; MCF-7/adr; 72 hours of incubation; concentration that induces the death of 50% of the cells; read-out: CI50 for various cell lines (nM) MCF-7/adr
Method: (§1) The effects of the compounds of the invention on the proliferation of cancer cells were studied on various human cancer cell lines of various tissue origins (MCF-7: breast cancer, MCF-7/adr adriamycin-resistant breast cancer, ARH-77: myeloma, ARH-77/Dox: doxorubicin (other name for adriamycin)-resistant myeloma, HL-60: acute promyelocytic leukaemia, HL-60/R10: doxorubicin-resistant acute promyelocytic leukaemia). The cancer cells used for this study were incubated at 37° C. in the presence of one of the compounds of the invention added to the culture medium at various concentrations.
(§2) The cancer cell lines originate from the ATCC (American Type Culture Collection) in the case of MCF-7, ARH-77 and HL-60, from Pharmacell (Paris, France) for HL-60/R10, from Oncodesign (Dijon, France) for ARH-77/Dox and from the Pitié Salpetrière Hospital for MCF-7/adr. They were cultivated in a RPMI 1640 medium containing 2 mM L-glutamine and supplemented with 10% foetal calf serum. All the cell lines were maintained in culture at 37° C. in a moist atmosphere containing 5% CO2. Cell proliferation was evaluated using the “CellTiter 96® AQueous” reagent (Promega, Wis., USA) while adhering to the manufacturer's instructions. The cells were seeded in 96-well culture plates in a proportion of from 5,000 to 10,000 cells per well in 200 μl of culture medium. After 24 hours of preincubation at 37° C., the compounds of the invention dissolved in dimethyl sulphoxide (DMSO) were added individually to each of the wells in a proportion of 2 μl per well. After 72 hours of incubation at 37° C. in a moist atmosphere containing 5% CO2, 40 μL of a MTS/PMS ([3-(4,5-dimethylthiazol-2-yl)-5-(3-carboxymethoxyphenyl)-2-(4-sulphophenyl)-2H-tetrazolium phenazine methosulphate) solution were added to each well.

[2] = test system: MCF-7 breast cancer cell line; test: Cell proliferation (CellTiter 96 AQueous MTS/PMS), MCF-7; type: cell-based; conditions: Homo sapiens, MCF7; MCF-7; 72 hours of incubation; concentration that induces the death of 50% of the cells; read-out: CI50 for various cell lines (nM) MCF-7
Method: as §1, §2

Structure (SMILES)	IC50 [1]	IC50 [2]
C#CC(=O)N(c1cccc(C(F)(F)F)c1)C(C(=O)NC1CCCCC1)c1ccccc1[N+](=O)[O-] (centres unmarked) [Compound 85, Propynoic Acid [cyclohexylcarbamoyl-(2-nitrophenyl)methyl]-(3-trifluoromethylphenyl)amide]	1.6 nM	177 nM
C#CC(=O)N(c1cccc(C(F)(F)F)c1)C(C(=O)NC1CCCCC1)c1ccc(Cl)cc1Cl (centres unmarked) [Compound 86, Propynoic Acid [cyclohexylcarbamoyl-(2,4-dichlorophenyl)methyl]-(3-trifluoromethylphenyl)amide]	0.8 nM	216 nM
C#CC(=O)N(c1cccc(C(F)(F)F)c1)C(C(=O)NC1CCCCC1)c1ccc(SC)cc1 (centres unmarked) [Compound 88, Propynoic Acid [cyclohexylcarbamoyl-(4-methylsulphanylphenyl)methyl]-(3-trifluoromethylphenyl)amide]	1.4 nM	334 nM
C#CC(=O)N(c1cccc(C(F)(F)F)c1)C(C(=O)NC1CCCCC1)c1ccc(C(C)C)cc1 (centres unmarked) [Compound 89, Propynoic Acid [cyclo hexylcarbamoyl-(4-isopropylphenyl)methyl]-(3-trifluoromethylphenyl)amide]	2.2 nM	825 nM
C#CC(=O)N(c1cccc(C(F)(F)F)c1)C(C(=O)NC1CCCCC1)c1cccc(Oc2ccccc2)c1 (centres unmarked) [Compound 90, Propynoic Acid [cyclohexylcarbamoyl-(3-phenoxyphenyl)methyl]-(3-trifluoromethylphenyl)amide]	2.2 nM	820 nM
C#CC(=O)N(c1cccc(C(F)(F)F)c1)C(C(=O)NC1CCCCC1)c1cccc(C)c1 (centres unmarked) [Compound 94, Propynoic Acid (cyclohexylcarbamoyl-m-tolylmethyl)-(3-trifluoromethylphenyl)amide]	2 nM	599 nM
C#CC(=O)N(c1cccc(C(F)(F)F)c1)C(C(=O)NC1CCCCC1)c1cccc(C#N)c1 (centres unmarked) [Compound 95, Propynoic Acid [(3-cyanophenyl)-cyclohexylcarbamoylmethyl]-(3-trifluoromethylphenyl)amide]	1.4 nM	243 nM
C#CC(=O)N(c1cccc(C(F)(F)F)c1)C(C(=O)NC1CCCCC1)c1ccc(C)cc1C (centres unmarked) [Compound 100, Propynoic Acid [cyclohexylcarbamoyl-(2,4-dimethylphenyl)methyl]-(3-trifluoromethylphenyl)amide]	0.5 nM	308 nM
C#CC(=O)N(c1cccc(C(F)(F)F)c1)C(C(=O)NC1CCCCC1)c1ccc(N2CCCC2)cc1 (centres unmarked) [Compound 101, Propynoic Acid [cyclohexylcarbamoyl-(4-pyrrolidin-1-yl-phenyl)methyl]-(3-trifluoromethylphenyl)amide]	1.1 nM	416 nM
C#CC(=O)N(c1cccc(C(F)(F)F)c1)C(C(=O)NC1CCCCC1)c1ccc(Cl)c(Cl)c1 (centres unmarked) [Compound 102, Propynoic Acid [cyclohexylcarbamoyl-(3,4-dichlorophenyl)methyl]-(3-trifluoromethylphenyl)amide]	1 nM	428 nM
C#CC(=O)N(c1cccc(C(F)(F)F)c1)C(C(=O)NC1CCCCC1)c1cccc(F)c1F (centres unmarked) [Compound 106, Propynoic Acid [cyclohexylcarbamoyl-(2,3-difluorophenyl)methyl]-(3-trifluoromethylphenyl)amide]	1 nM	260 nM
O=C(NC1CCCCC1)C(c1cccs1)N(C(=O)CBr)c1cccc(C(F)(F)F)c1 (centres unmarked) [Compound 107, 2-[(2-Bromoacetyl)-(3-trifluoromethylphenyl)amino]-N-cyclohexyl-2-thiophen-2-yl-acetamide]	0.5 nM	267 nM
COc1ccc(N(C(=O)CCl)C(C(=O)NC2CCCCC2)c2cccs2)cc1 (centres unmarked) [Compound 109, 2-[(2-Chloroacetyl)-(4-methoxyphenyl)amino]-N-cyclohexyl-2-thiophen-2-yl-acetamide]	1 nM	100 nM

From patent US8519188B2, “Compounds which can be used for the treatment of cancers” (Marc-Henry Pitty, priority 2008, dated 2013)
